Experimental data: patent WO2016071431A1, “A combination for cancer therapy” (Stichting Katholieke Universiteit, priority 2014, dated 2016)
“Also recorded” adds a separate entry of the source. Like-named read-outs stand apart in the source and are kept apart here. In the oligonucleotide strings, read from the 5' end, every base follows the letter of its sugar. An asterisk marks phosphorothioate; unmarked linkages are phosphodiester. Other units and linkages are bracketed, terminal groups are in braces. A string of capitals states the bases alone. [s2] = phosphorodithioate linkage; d = 2'-deoxy (DNA)

Experiments:
[1] = test system: B16-F10 melanoma; assay: Intratumoral treatment of subcutaneous B16-F10 melanoma, tumor growth; type: in vivo, mouse; conditions: stand-alone, 0.3mg (10mg/kg) or 1mg (30mg/kg) intratumoral, three times per week for four weeks, C57BL/6 mice
[2] = test system: sialic acid expression; assay: Sialic acid expression in tumor tissue and other organs after intratumoral injections (lectin flow cytometry); type: in vivo, mouse; conditions: after 3 intratumoral injections
[3] = test system: CD8+ cells; assay: Tumor infiltration of immune cells after intratumoral injections (flow cytometry); type: in vivo, mouse; conditions: after 3 intratumoral injections, 0.3mg
[4] = test system: B16-F10 melanoma; assay: Effect on B16-F10 tumor growth after depletion of effector immune cells; type: in vivo, mouse
[5] = test system: B16-F10 melanoma; assay: Combination with CpG in B16-F10 melanoma, tumor growth and survival; type: in vivo, mouse; conditions: CpG combination study; P-3Fax-Neu5Ac 0.3mg intratumoral three times per week and/or CpG 100μg peritumoral day 14 and 21
[6] = test system: 9464D neuroblastoma; assay: Intratumoral treatment of subcutaneous 9464D neuroblastoma, tumor growth; type: in vivo, mouse; conditions: 10mg/kg or 20m/kg intratumoral three times per week until day 50, C57BL/6 mice
[7] = test system: Mouse bone marrow-derived dendritic cells; assay: TLR-mediated maturation of mouse bone marrow-derived dendritic cells (CD80); type: cell-based; conditions: three days with P-3Fax-Neu5Ac, then 24 hours LPS, CpG or polyI/C
[8] = test system: Human monocyte-derived dendritic cells; assay: TLR-mediated maturation of human monocyte-derived dendritic cells (CD80); type: cell-based; conditions: six donors, four days with P-3Fax-Neu5Ac, then 24 hours polyI/C, R848 or LPS
[9] = test system: mouse melanoma cells; conditions: cited from earlier work
[10] = test system: mammalian cells; conditions: Rillahan et al, 2012, cited from earlier work
[11] = test system: tumor cells; conditions: Büll et al, 2013; cited from earlier work
[12] = test system: melanoma cells; conditions: Büll et al, 2013; cited from earlier work

Compound: COC(=O)C1(OC(C)=O)OC(C(OC(C)=O)C(COC(C)=O)OC(C)=O)C(NC(C)=O)C(OC(C)=O)C1F (stereo not shown) [P-3Fax-Neu5Ac]
- tumor growth [1]: hamper B 16-F 10 melanoma growth; also recorded: antagonizes tumor growth in a dose-dependent manner
- tumor growth ([1]; listed as glycomimetic): delayed tumor growth modestly
- sialic acid expression in tumor tissue ([2]; 0.3mg or 1mg, MALII, SNA-I or PNA lectin): block sialic acid expression in the tumor mass; also recorded: reduction of sialic acid expression in the isolated tumor tissue
- sialic acid expression in other organs such as the spleen ([2]; fluorescent sialic acid binding lectins): not other organs such as the spleen
- infiltration of immune cells in the tumor [3]: enhanced infiltration of immune cells, especially CD8+ cells in the tumor
- tumor growth suppression mediated by CD8+ cells ([4]; B16-F10 melanoma model, CD8+ depleted versus non-depleted mice): mediated by effector CD8+ immune cells
- effect of sialic acid blockade on tumor growth upon CD4+ cell depletion ([4]; CD4+ cell depletion, 0.3mg intratumoral three times per week): unaffected
- effect of sialic acid blockade on tumor growth upon CD8+ cell depletion ([4]; CD8+ cell depletion, 0.3mg intratumoral three times per week): CD8+ cell depletion abrogated the effect of sialic acid blockade on tumor growth
- effect of sialic acid blockade on tumor growth upon K1.1+ cell depletion ([4]; K1.1+ cell depletion, 0.3mg intratumoral three times per week): unaffected
- median survival time / survival time [5]: slightly prolonged the survival time
- tumor growth [6]: hamper 9464D neuroblastoma growth
- activation / maturation of dendritic cells (CD80 expression) [7]: enhances APC maturation with TLR ligands; also recorded: strongly enhances activation of dendritic cells
- activation / maturation of dendritic cells (CD80 expression) [8]: enhances APC maturation with TLR ligands; also recorded: strongly enhances activation of dendritic cells
- expression of sialic acids in melanoma / cancer cells ([9]; Büll et al, 2013, listed as glycomimetic): potently blocks sialic acid synthesis and expression in cancer cells
- duration of the blocking effect ([9]; Büll et al, 2013): almost four days
- expression of sialic acids in melanoma / cancer cells ([9]; Büll et al, 2013): blocks the expression of sialic acids in mouse melanoma cells with high efficiency
- depletion of sialic acids from mammalian cells [10]: deplete sialic acids from mammalian cells
- cellular cytotoxicity ([10]; mammalian cells): without causing cellular cytotoxicity
- adhesion and migration of tumor cells [11]: can impair adhesion and migration of tumor cells
- growth of melanoma cells treated with the inhibitor before injection into mice [12]: grow significantly slower

Compound: CpG: CpG oligodeoxynucleotide immune adjuvant; more preferred: phosphodithioate backbone and sequence 5'-TCCATGACGTTCCTGATGCT-3' (DNA dT[s2]dC[s2]dC[s2]dA[s2]dT[s2]dG[s2]dA[s2]dC[s2]dG[s2]dT[s2]dT[s2]dC[s2]dC[s2]dT[s2]dG[s2]dA[s2]dT[s2]dG[s2]dC[s2]dT)
- median survival time / survival time [5]: no effect on tumor growth and median survival time
- tumor growth [5]: almost no effect on tumor growth
